{"source": "patent US12285401B2", "about": "“Pharmaceutical composition comprising trimebutine or pharmaceutically acceptable salt thereof as an active ingredient for prevention or treatment of cancer” (DAEGU-GYEONGBUK MEDICAL INNOVATION FOUNDATION, priority 2019, dated 2025)", "key": {"[1]": {"test_system": "A2780-SP cells (ovarian cancer stem cells)", "experiment": "Cell viability assay (Cell-titer Glo), A2780-SP sphere cell viability", "format": "cell-based", "details": "for GI50: A2780-SP ovarian cancer stem cells, 1,500 cells per well, Cell-titer Glo; for viability of A2780-SP cells (ovarian cancer stem cells), result in words: 1500 cells, 7 days, Cell titer Glo"}, "[2]": {"test_system": "A2780 cells (ovarian cancer cells)", "experiment": "Cell viability assay (Cell-titer Glo), A2780 cell viability", "format": "cell-based", "details": "3 days"}, "L-type Ca channel": {"test_system": "L-type Ca channel", "experiment": "Whole cell patch clamp recording, Ca channel current in A2780-SP cells", "format": "cell-based", "details": "10 μM, 5 minutes"}, "BKCa channel": {"molecular_target": "T1, BKCa channel (Homo sapiens, UniProt Q12791)", "T1 construct": "K^+ current of the BK channel was measured by increasing the membrane voltage by 10 mV starting at −80 mV; endogenous in cells; host or cells: A2780-SP (ovarian cancer stem cells)", "T1 sequence (Q12791 whole entry)": "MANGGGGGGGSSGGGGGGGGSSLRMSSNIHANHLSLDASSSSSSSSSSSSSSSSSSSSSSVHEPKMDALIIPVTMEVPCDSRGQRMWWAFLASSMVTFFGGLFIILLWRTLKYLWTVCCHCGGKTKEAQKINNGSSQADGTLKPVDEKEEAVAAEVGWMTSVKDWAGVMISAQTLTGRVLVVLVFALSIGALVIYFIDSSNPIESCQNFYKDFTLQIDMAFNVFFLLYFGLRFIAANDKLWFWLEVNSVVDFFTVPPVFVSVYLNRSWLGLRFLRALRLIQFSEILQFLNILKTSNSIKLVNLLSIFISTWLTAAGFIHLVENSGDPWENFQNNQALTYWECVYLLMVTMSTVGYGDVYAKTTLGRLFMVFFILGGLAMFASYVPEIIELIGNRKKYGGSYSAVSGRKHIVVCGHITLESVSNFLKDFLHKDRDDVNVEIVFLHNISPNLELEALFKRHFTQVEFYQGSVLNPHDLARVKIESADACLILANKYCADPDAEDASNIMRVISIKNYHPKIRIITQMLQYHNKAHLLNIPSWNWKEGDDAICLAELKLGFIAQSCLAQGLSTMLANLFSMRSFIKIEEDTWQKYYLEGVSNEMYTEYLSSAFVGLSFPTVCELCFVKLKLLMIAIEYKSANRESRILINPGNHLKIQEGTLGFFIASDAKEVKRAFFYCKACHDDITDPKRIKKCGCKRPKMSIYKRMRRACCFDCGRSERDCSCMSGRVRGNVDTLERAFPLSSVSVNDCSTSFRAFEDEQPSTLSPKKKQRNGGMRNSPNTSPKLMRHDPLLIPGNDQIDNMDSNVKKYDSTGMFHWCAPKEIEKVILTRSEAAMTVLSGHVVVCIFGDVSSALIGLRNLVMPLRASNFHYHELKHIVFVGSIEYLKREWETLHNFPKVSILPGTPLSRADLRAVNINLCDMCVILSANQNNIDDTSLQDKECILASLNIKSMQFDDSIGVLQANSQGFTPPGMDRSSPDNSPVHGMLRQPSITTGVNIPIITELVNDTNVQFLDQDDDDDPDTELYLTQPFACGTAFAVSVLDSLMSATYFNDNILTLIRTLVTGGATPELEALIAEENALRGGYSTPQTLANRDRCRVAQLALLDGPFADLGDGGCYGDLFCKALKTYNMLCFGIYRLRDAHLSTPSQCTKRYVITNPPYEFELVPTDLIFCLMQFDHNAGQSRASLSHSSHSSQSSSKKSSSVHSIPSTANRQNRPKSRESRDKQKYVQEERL", "experiment": "Whole cell patch clamp recording, BKCa channel current in A2780-SP cells", "format": "cell-based", "details": "10 μM, 5 minutes"}, "β-catenin": {"test_system": "β-catenin", "experiment": "β-catenin S552 phosphorylation and translocation experiments in A2780-SP cells", "format": "cell-based", "details": "1 μM or 10 μM, 24 hours", "experimental": "A2780-SP cells (ovarian cancer stem cells) were plated in an ultra-low attachment round bottom 6-well plate (Corning) at the density of 4×10^5 viable cells per well and cultured in a cancer stem cell medium (CM). The cancer stem cell medium is composed of a neurobasal medium supplemented with 20 ng/ml of bFGF, 10 ng/ml of EGF, 2.5 ng/ml of amphotericin B, HEPES, Glutamax and B27. On the next day of culture, the cells were treated with the compound at the concentration of 1 μM or 10 μM for 24 hours. The control group was treated in the same manner as above for 24 hours with a neurobasal medium (NBM) and a cancer stem cell medium (CM) containing DMSO.\nTo measure the degree of phosphorylation of β-catenin S552, 100 μl of RIPA buffer (containing 1× protease inhibitor and phosphatase inhibitor) was added to the prepared cells, and the cells were disrupted by shaking once every 5 minutes for a total of 15 minutes. The disrupted cells were centrifuged at 13,000 rpm for 15 minutes to collect only the supernatant protein, and the obtained protein was quantified using a BCA protein quantification kit (Pierece, MA, USA), and a total of 15 μg of the protein was used for Western blotting. NE-PER Nuclear and Cytoplasmic Extraction Reagents (Thermoscientific, #78833) were used to separate cytoplasmic and nuclear proteins. […]"}, "A2780-SP xenograft": {"test_system": "A2780-SP xenograft", "experiment": "A2780-SP xenograft model, tumor formation", "format": "in vivo", "details": "3 mg/kg, intraperitoneal, nude mouse", "experimental": "(§1) In order to confirm the inhibitory effect of the pharmaceutical composition of Examples of the present invention in the ovarian cancer stem cell tumor model, each nude mouse was subcutaneously inoculated with 2×10^6 A2780-SP (ovarian cancer stem cell line) cells. After the implantation, the size of tumor formation was measured using a caliper. When the tumor volume became 100 mm^3 or more, the experimental group was divided into the control group (vehicle) and the pharmaceutical composition of Examples of the present invention treated group (3 mg/kg of trimebutine) and the drug was administered to confirm the effect of the drug. The drug was administered […] through intraperitoneal administration, and the size of the tumor and the weight of the mouse were measured at intervals of 3 to 4 days. Then, all mice were euthanized on the day of the end of the experiment, and finally the size of the tumor and the weight were measured.\n(§2) In order to confirm the ovarian cancer treatment effect of the pharmaceutical composition containing trimebutine of the present invention in vivo, an animal model experiment was performed. The specific experimental method is the same as the animal experiment method described in Experimental Protocol 5."}, "Na channel": {"test_system": "Na channel", "experiment": "Whole cell patch clamp recording, Na channel current in A2780-SP cells", "format": "cell-based", "details": "10 μM, 5 minutes"}, "[3]": {"experiment": "A2780-SP xenograft model, change in body weight", "format": "in vivo", "details": "3 mg/kg, intraperitoneal, nude mouse", "experimental": "as §1, §2"}, "ALDH, OCT4 and SOX2": {"test_system": "ALDH, OCT4 and SOX2", "experiment": "Western blotting of markers related to cancer stemness in A2780-SP cells", "format": "cell-based", "details": "1 μM or 10 μM", "experimental": "A2780-SP cells (ovarian cancer stem cells) were plated in an ultra-low attachment 6-well plate (Corning) at the density of 4×10^5 viable cells per well and cultured in a cancer stem cell medium. On the next day of culture, the medium was replaced with NBM (Neuro Basal Medium), and the cells were cultured for 16 hours in starvation. Then, the cells were treated with the compound of Example 1 at the concentration of 1 μM or 10 μM for 1 hour. The medium was replaced with a cancer stem cell medium containing the compound, and the cells were collected and cultured for an additional 30 minutes before being lysed in RiPA buffer. The extracted protein was separated by SDS-PAGE gel and transferred to a PVDF membrane for Western blotting. […]\nSignals were developed on an enhanced chemiluminescence HRP substrate (Bio-Rad) and detected using LAS-3000 mini (Fuji film). The signals were quantified using Image J software (NIH Image).\nIn order to confirm the anticancer effect through the changes in the expressions of the markers related to sternness and the proteins related to survival and proliferation of cancer stem cells according to the treatment of the pharmaceutical composition containing trimebutine of the present invention, the expression levels of various factors were analyzed by Western blotting. […]"}}, "data": [{"molecule": "COc1ccc(CN2CCN(C(c3ccc(F)cc3)c3ccc(F)cc3)CC2)c(OC)c1OC", "note": "[Comparative Example 1 (lomerizine), Lomerizine]", "values": [{"measurement": "GI50", "setting": "[1]", "value": 2950, "unit": "nM"}]}, {"molecule": "COC(=O)C1=C(C)NC(C)=C(C(=O)O[C@@H]2CCCN(Cc3ccccc3)C2)[C@@H]1c1cccc([N+](=O)[O-])c1", "note": "(racemic) [Comparative Example 1 (benidipine), Benidipine]", "values": [{"measurement": "GI50", "setting": "[1]", "value": 2640, "unit": "nM"}]}, {"molecule": "COC(=O)C1=C(C)NC(C)=C(C(=O)OCCN2CCN(C(c3ccccc3)c3ccccc3)CC2)C1c1cccc([N+](=O)[O-])c1", "note": "(centres unmarked) [Comparative Example 1 (manidipine), Manidipine]", "values": [{"measurement": "GI50", "setting": "[1]", "value": 2700, "unit": "nM"}, {"measurement": "GI50", "setting": "[2]", "value": "~9670", "unit": "nM"}]}, {"molecule": "CCC(COC(=O)c1cc(OC)c(OC)c(OC)c1)(c1ccccc1)N(C)C", "note": "(centres unmarked) [Example 1, Trimebutine]", "values": [{"measurement": "amplitude of Ca current", "setting": "L-type Ca channel", "value": "remarkably suppressed"}, {"measurement": "amplitude of BKCa current", "setting": "BKCa channel", "value": "remarkably suppressed"}, {"measurement": "degree of β-catenin S552 phosphorylation", "setting": "β-catenin", "value": "reduced"}, {"measurement": "translocation of β-catenin into the nucleus", "setting": "β-catenin", "value": "reduced"}, {"measurement": "tumor formation", "setting": "A2780-SP xenograft", "value": "specifically inhibited tumor formation"}, {"measurement": "amplitude of Na current", "setting": "Na channel", "value": "remarkably suppressed"}, {"measurement": "change in body weight", "setting": "[3]", "value": "no change in body weight"}, {"measurement": "viability of A2780-SP cells (ovarian cancer stem cells), result in words", "setting": "[1]", "value": "reduced the viability"}, {"measurement": "viability of A2780-SP cells (ovarian cancer stem cells), result in words", "setting": "[1]; listed as trimebutine", "value": "excellent effect of inhibiting the survival of ovarian cancer stem cells"}, {"measurement": "GI50", "setting": "[1]", "value": 401, "unit": "nM"}, {"measurement": "selectivity for cancer stem cells rather than cancer cells", "setting": "[1]; A2780-SP versus A2780, FIGS. 1F and 1G compared with FIGS. 1A to 1E", "value": "excellent selectivity"}, {"measurement": "expressions of ALDH, OCT4 and SOX2, the markers related to cancer stemness", "setting": "ALDH, OCT4 and SOX2", "value": "reduced"}]}, {"molecule": "CCOC(=O)C1=C(C)NC(C)=C(C(=O)OCC)C1c1ccccc1/C=C/C(=O)OC(C)(C)C", "note": "[Comparative Example 1 (lacidipine), Lacidipine]", "values": [{"measurement": "GI50", "setting": "[1]", "value": 2900, "unit": "nM"}]}]}
